In patent publication US9701709B2 (REATA PHARMACEUTICALS, INC., priority 2012, dated 2017):
Several values for one entry are separate records, joined by “and”; a condition that tells them apart may be missing. Equal entries are not always repeated. Where two headings read alike, the source gives them in different places.

Tests used:
[1] = system: DU-145 prostate cancer cell line; experiment: Cytotoxicity in combination with docetaxel in DU-145; type: cell-based; conditions: RTA 408 0.125 to 0.75 μM
Source text: (§1) This evidence supports the concept that RTA 408 could act synergistically with cancer therapeutic agents and may be used in some embodiments to provide greater efficacy in treating cancer patients.

[2] = system: cigarette smoke-induced COPD; experiment: Cigarette smoke-induced COPD in mice; type: in vivo, mouse
Method: (a) KC; (b) IL-6; (c) TNF-α; (d) IFN-γ; (e) RANTES. […] An AIM analog (63355) was tested in the same study for comparison. Asterisks indicate a statistically significant difference form the CS control group.
At the end of the study, lung tissue and BALF were collected for analysis of inflammatory infiltrates and cytokines. […] An AIM analog (63355) was tested in the same study for comparison. 63355 is a compound of the formula: […]
Txnrd, Gst, and […] enzyme activities were measured using commercially available kits from Cayman Chemical (Ann Arbor, Mich.).

[3] = system: LNCaP prostate cancer cell line; experiment: Cytotoxicity in combination with 5-fluorouracil in LNCaP; type: cell-based; conditions: RTA 408 0.125 to 0.5 μM
Source text: as §1

[4] = Distribution into mouse tissues after PO QD×3; type: in vivo; conditions: mice PO QD×3 25 mg/kg, 6 h after last dose, semi-quantitative
Method: Semi-quantitative analysis of drug content was performed.

[5] = target: CYP1A2 (Homo sapiens, UniProt P05177); experiment: in vitro; type: in vitro ADME; conditions: microsomes
CYP1A2, sequence (P05177 whole entry): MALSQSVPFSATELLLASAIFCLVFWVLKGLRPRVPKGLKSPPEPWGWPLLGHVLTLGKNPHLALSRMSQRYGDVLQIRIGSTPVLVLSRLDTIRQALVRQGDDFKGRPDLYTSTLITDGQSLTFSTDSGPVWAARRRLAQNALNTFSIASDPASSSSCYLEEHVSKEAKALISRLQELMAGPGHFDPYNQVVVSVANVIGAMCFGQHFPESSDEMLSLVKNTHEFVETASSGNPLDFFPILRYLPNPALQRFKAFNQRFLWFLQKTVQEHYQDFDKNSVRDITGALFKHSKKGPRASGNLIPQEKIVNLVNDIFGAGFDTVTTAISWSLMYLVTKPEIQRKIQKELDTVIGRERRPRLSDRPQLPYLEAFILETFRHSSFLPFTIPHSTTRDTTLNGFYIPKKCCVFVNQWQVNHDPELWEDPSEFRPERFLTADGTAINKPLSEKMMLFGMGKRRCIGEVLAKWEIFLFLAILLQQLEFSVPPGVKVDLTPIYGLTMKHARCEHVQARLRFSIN
Source text: (§2) In addition, there was little or no evidence of metabolism-dependent inhibition of any of the enzymes tested.

[6] = Plasma protein binding (ultracentrifugation), monkey
[7] = system: ovalbumin-induced asthma; experiment: Ovalbumin-induced asthma in mice; type: in vivo, mouse
Source text: Mice were sensitized with an IP injection of ovalbumin and aluminum hydroxide on Day 0 and Day 14 and challenged intranasally with ovalbumin in saline on Days 14, 25, 26, and 27. […] An increase in the number of T cells and B cells was also observed in the vehicle-treated mice.

[8] = target: CYP2C8 (Homo sapiens, UniProt P10632); experiment: CYP450 inhibition in pooled human liver microsomes, CYP2C8; type: in vitro ADME; conditions: read-out: Ki, direct inhibition of CYP2C8
CYP2C8, sequence (P10632 whole entry): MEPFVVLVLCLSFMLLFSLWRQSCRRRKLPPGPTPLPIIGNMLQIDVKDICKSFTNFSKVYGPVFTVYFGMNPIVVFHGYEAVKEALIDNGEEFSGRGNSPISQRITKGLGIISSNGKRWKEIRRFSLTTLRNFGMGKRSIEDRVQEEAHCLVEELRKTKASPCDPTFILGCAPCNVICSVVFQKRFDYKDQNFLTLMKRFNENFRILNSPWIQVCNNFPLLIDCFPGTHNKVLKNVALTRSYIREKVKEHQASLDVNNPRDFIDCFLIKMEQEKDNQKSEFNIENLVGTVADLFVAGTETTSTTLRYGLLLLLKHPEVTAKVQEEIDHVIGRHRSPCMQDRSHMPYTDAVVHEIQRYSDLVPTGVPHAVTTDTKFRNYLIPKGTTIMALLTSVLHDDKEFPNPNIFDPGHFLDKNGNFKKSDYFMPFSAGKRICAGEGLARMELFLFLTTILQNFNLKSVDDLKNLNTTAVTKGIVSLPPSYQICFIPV
Source text: as §2

[9] = target: CYP2D6 (Homo sapiens, UniProt P10635); experiment: CYP450 inhibition in pooled human liver microsomes, CYP2D6; type: in vitro ADME; conditions: highest concentration tested (3 μM)
CYP2D6, sequence (P10635 whole entry): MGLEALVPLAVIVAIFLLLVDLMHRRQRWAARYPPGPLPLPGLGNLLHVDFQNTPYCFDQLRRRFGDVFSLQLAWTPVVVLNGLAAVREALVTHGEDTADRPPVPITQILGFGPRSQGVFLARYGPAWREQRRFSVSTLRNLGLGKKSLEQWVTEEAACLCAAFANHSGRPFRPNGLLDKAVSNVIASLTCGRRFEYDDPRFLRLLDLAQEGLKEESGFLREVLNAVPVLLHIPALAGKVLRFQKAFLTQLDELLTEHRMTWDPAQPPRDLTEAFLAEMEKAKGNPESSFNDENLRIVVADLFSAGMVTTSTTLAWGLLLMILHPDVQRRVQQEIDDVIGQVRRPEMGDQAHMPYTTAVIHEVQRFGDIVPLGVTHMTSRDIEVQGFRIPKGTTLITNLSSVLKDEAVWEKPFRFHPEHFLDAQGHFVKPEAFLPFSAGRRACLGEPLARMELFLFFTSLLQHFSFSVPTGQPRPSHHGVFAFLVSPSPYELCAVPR
Source text: as §2

[10] = system: cardiovascular function; experiment: Cardiovascular evaluation in conscious cynomolgus monkeys (telemetry); type: in vivo, cynomolgus monkey
Method: Animals were instrumented with telemetry transmitters for measurement of body temperature, blood pressure, heart rate, and electrocardiogram (ECG) evaluation. Body temperature, systolic, diastolic, and mean arterial blood pressure, heart rate, and ECG parameters (QRS duration and RR, PR, and QT intervals) were monitored continuously from at least 2 h pre-dose until at least 24 h post-dose. ECG tracings were printed at designated time points from the cardiovascular monitoring data and were qualitatively evaluated by a board-certified veterinary cardiologist.
Observations for morbidity, mortality, injury, and availability of food and water were conducted at least twice daily for all animals. Clinical observations were conducted pre-dose, approximately 4 h post-dose, and following completion of the cardiovascular monitoring period. Body weights were measured and recorded on the day prior to each treatment administration.

[11] = system: bleomycin-induced pulmonary fibrosis; experiment: Bleomycin-induced pulmonary fibrosis in mice; type: in vivo, mouse; conditions: 10, 30, or 100 mg/kg oral gavage daily for 39 days
[12] = system: NQO1 and HMOX1 protein in SH-SY5Y cells; experiment: Western blot of Nrf2 target proteins in SH-SY5Y; type: cell-based, human; conditions: 24 h
Method: SH-SY5Y cells were plated in 6-well plates at a density of 4×10^5 cells per well. BV-2 cells were plated in 6-well plates at a density of 2.5×10^4 cells per well. […] Following treatment, cells were washed twice with cold PBS and harvested in lysis buffer. Cells were sonicated and debris was cleared by centrifugation (10 min @ 18,000 rcf, Beckman Coulter, microfuge 18 centrifuge). Total protein in supernatant was quantified using Bio-Rad protein reagent with BSA as a standard. Equal amounts of total cellular protein were separated on SDS-PAGE, and proteins were transferred to nitrocellulose membrane. Membranes were blocked for 1 hour in TBST (1×TBS with 0.1% Tween-20) containing 5% milk, washed 3 times with TBST, and incubated with primary antibodies overnight at 4° C. NQO1 antibody was from Abcam (#AB2346); HMOX1 (HO-1) antibody was from Santa Cruz (#sc-10789); actin antibody was from Millipore (#MAB 1501). After washing with TBST, secondary antibodies were added in TBST+5% milk for 1 h at room temperature. AffiniPure goat anti-rabbit or anti-mouse IgG secondary antibodies were from Jackson ImmunoResearch (catalog #111-035-144 and #115-035-146, respectively). Membranes were washed in TBST, developed using ECL, and exposed to X-ray film. […] HMOX1 protein was not detected in untreated or RTA 408-treated SH-SY5Y cells. […] The same amount of 63170 (54.6 nM) was required.

[13] = system: LPS-induced sepsis; conditions: mouse, in vivo
[14] = 28-day toxicity study in rats; type: in vivo, rat
[15] = target: CYP2B6 (Homo sapiens, UniProt P20813); experiment: CYP450 inhibition in pooled human liver microsomes, CYP2B6; type: in vitro ADME; conditions: highest concentration tested (3 μM)
CYP2B6, sequence (P20813 whole entry): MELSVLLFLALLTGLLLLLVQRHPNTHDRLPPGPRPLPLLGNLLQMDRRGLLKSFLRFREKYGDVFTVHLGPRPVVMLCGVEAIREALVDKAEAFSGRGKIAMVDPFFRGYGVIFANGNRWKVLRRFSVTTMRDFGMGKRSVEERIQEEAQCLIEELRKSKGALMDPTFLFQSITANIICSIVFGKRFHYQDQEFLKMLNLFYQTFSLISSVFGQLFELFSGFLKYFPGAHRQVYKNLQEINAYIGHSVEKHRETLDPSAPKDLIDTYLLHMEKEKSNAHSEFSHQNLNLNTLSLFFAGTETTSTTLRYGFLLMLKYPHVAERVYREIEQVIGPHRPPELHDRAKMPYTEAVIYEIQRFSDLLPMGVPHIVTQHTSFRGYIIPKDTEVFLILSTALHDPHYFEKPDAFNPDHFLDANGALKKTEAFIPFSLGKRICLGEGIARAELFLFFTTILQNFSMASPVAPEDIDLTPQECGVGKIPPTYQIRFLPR
Source text: as §2

SMILES: CC1(C)CC[C@]2(NC(=O)C(C)(F)F)CC[C@]3(C)[C@H](C(=O)C=C4[C@@]5(C)C=C(C#N)C(=O)C(C)(C)[C@@H]5CC[C@]43C)[C@@H]2C1 [RTA 408, N-((4aS,6aR,6bS,8aR,12aS,14aR,14bS)-11-cyano-2,2,6a,6b,9,9,12a-heptamethyl-10,14-dioxo-1,2,3,4,4a,5,6,6a,6b,7,8,8a,9,10,12a,14,14a,14b-octadecahydropicen-4a-yl)-2,2-difluoropropanamide]
- Cytotoxicity of docetaxel in combination [1]: amplified the cytotoxicity of the chemotherapeutic agent in a statistically significant fashion
- Lung Txnrd enzyme activity ([2]; 30 mg/kg): Txnrd enzyme activity was also induced
- Lung NQO1 enzyme activity (decreased by cigarette smoke) ([2]; 3, 10, or 30 mg/kg): rescued this loss
- Pro-inflammatory cytokines incl. KC and TNF-α ([2]; doses as low as 3 mg/kg daily for two weeks): significant suppression of pro-inflammatory cytokines
- Cytotoxicity of 5-fluorouracil in combination [3]: statistically significant increase in cytotoxicity when combined with RTA 408
- concentration at 6 h ([4]; brain, read-out: Drug content, Brain): 1080 nM
- concentration at 6 h ([4]; kidney, read-out: Drug content, Kidney): 1600 nM
- concentration at 6 h ([4]; liver, read-out: Drug content, Liver): 985 nM
- concentration at 6 h ([4]; lung, read-out: Drug content, Lung): 533 nM
- concentration at 6 h ([4]; plasma, read-out: Drug content, Plasma): 51 nM
- concentration at 6 h ([4]; whole blood, read-out: Drug content, Whole Blood): 679 nM
- inhibition at 3 µM [5]: < 50%
- fraction unbound [6]: 0.05
- B cells within the airways ([7]; 30 mg/kg): significantly reduced the number and percentage of B cells within the airways
- Macrophages detected in the airways ([7]; 3 and 30 mg/kg): significantly reduced the number of macrophages
- Ki [8]: ~500 nM
- inhibition at 3 µM [9]: < 50%
- Increase in the corrected QT interval (on average) ([10]; 100 mg/kg oral, not considered treatment related): 1.6%
- Cardiovascular function ([10]; oral, doses up to and including 100 mg/kg): produced no effects on cardiovascular function
- Inflammation and interstitial fibrosis (lung histology) [11]: no statistically significant effects were observed
- NQO1 protein levels [12]: increased NQO1 protein levels in SH-SY5Y cells in a dose-dependent manner
- Animals surviving until Day 4 [13]: 80% and 90%
- Survival, systemic LPS [13]: improved survival
- Transaminases [14]: Transaminase elevations were observed
- inhibition at 3 µM [15]: < 50%
